According to US20090280160A1, “PHENYLEPHRINE PHARMACEUTICAL FORMULATIONS AND COMPOSITIONS FOR TRANSMUCOSAL ABSORPTION” (Schering-Plough Healthcare Products, Inc., priority 2007, published 2009):
“Also recorded” adds a separate entry of the source.

Assays:
α1b adrenoreceptor [1] = biological target: T1, α1b adrenoreceptor (Homo sapiens, UniProt P35368); experiment: Cellular calcium flux (FLIPR), α1b expressing CHO cells; type: cell-based; conditions: for increase in intracellular calcium, α1b calcium assay (in words): α1b expressing CHO cells
T1 construct: expressed in transfected cells
T1 sequence (P35368 1-520): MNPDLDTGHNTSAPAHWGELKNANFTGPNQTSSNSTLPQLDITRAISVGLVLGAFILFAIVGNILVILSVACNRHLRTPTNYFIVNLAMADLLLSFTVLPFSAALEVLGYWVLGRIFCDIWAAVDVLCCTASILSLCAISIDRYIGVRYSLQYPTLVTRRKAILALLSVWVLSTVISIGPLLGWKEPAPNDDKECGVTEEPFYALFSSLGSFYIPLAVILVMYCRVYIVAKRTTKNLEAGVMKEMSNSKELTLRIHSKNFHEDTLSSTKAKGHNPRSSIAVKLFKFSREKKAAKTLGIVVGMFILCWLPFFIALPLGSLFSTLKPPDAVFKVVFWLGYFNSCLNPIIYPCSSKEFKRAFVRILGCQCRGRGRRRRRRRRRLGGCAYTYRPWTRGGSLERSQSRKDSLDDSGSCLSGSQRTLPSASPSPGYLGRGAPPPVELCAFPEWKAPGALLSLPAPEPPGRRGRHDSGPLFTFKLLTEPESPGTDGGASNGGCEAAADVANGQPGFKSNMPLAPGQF
Protocol: (§1) The affinity and activity of phenylephrine metabolites were evaluated in human recombinant α1 and α2 adrenoreceptor binding and activity assays. […] Affinity of the metabolites was determined by receptor binding assays. Functional activity of the metabolites was assessed using an [^35S]-GTPγS binding exchange assay for the α2 receptor subtypes and a cell-based calcium flux response for the α1 receptor subtypes.
Intracellular calcium levels were measured using a fluorometric imaging plate reader (FLIPR). Cells expressing α1 adrenoreceptors were cultured overnight at 15,000 cells/well in 96 well black-wall clear bottom plates (Packard). Adherent cells were loaded for 1 hour at 37° C. using the FLIPR Calcium Plus Assay Kit (Molecular Probes, Eugene, Oreg.), which included 2.5 mM probenecid (Sigma). Compounds (at 10 mM in 100% DMSO) were diluted in diluting buffer (HBSS, 20 mM HEPES, 2.5 mM probenecid, 0.5% BSA, pH 7.4). A titration of norepinephrine was included in every experiment and norepinephrine (at 1 μM) was also used as a plate standard on each assay plate. Cells were maintained at 37° C. throughout all calcium measurements. Fluorescence data was collected at 1 second interval for 60 seconds, followed by collection at 2 second intervals for 30 seconds. Background fluorescence was quantitated in wells containing cells with no additions and was subtracted from all experimental samples. All conditions were done in quadruplicate. Non-linear regression analysis using GraphPad Prism was used to calculate EC50 values.
(§2) Each metabolite was evaluated in each assay in at least 2 independent experiments and a representative assay of each metabolite/assay combination is shown.

α1b adrenoreceptor [2] = biological target: T1, α1b adrenoreceptor; experiment: Competition binding, [3H]-prazosin, α1b CHO cell membranes
Protocol: as §1
(§3) Competition Binding Assays
(§4) Competition binding assays for the α2 adrenoreceptors were performed using 20 μg membrane protein per well in binding buffer (75 mM Tris-HCl pH 7.4, 12.5 mM MgCl2, […] EDTA, 0.2% bovine serum albumin). […] Binding was terminated by rapid filtration through GF/C unifilter plates, presoaked with 0.3% polyethylenimine, with five washes with 0.5 ml cold 50 mM Tris-HCl ph 7.4, using a Packard Filtermate Harvester. After drying, bound radioactivity was determined by liquid scintillation counting (Packard TopCount) with Microscint 20, 50 μl/well. Binding data were analyzed using GraphPad Prism.
as §2

α1a adrenoreceptor = biological target: T2, α1a adrenoreceptor (Homo sapiens, UniProt P35348); experiment: Competition binding, [3H]-prazosin, α1a CHO cell membranes
T2 construct: expressed in transfected cells
T2 sequence (P35348 1-466): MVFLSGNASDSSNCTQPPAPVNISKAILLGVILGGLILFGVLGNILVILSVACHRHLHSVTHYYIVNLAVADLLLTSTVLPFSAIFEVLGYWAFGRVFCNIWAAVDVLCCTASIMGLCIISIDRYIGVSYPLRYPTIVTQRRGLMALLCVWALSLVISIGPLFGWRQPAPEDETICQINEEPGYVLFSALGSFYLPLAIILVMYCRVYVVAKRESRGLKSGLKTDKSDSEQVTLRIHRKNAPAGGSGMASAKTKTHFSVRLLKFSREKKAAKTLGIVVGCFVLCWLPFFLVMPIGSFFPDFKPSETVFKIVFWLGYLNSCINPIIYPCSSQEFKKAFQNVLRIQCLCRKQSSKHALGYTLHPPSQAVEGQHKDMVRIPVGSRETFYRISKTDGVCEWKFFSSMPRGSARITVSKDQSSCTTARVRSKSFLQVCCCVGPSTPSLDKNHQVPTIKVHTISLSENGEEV

α2c adrenoreceptor = biological target: T3, α2c adrenoreceptor (Homo sapiens, UniProt P18825); experiment: Competition binding, [3H]-UK14304, α2c CHO cell membranes; conditions: for inhibition of [3H]-UK14304 binding, α2c (in words): CHO cell membranes
T3 construct: expressed in transfected cells; host or cells: CHO (Chinese hamster ovary) cells, membranes
T3 sequence (P18825 1-462): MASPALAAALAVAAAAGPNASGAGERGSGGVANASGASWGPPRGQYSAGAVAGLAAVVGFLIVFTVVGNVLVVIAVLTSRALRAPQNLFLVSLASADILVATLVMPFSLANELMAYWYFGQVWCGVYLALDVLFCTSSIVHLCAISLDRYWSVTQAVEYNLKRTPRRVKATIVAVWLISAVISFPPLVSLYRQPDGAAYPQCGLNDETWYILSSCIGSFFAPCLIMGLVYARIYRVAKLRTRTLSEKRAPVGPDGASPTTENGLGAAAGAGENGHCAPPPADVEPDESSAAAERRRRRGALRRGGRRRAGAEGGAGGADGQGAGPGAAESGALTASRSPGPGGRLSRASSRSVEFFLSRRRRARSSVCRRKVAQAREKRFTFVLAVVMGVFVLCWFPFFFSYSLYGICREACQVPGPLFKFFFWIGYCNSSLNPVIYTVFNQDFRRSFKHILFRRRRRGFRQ
Protocol: as §1, §3, §4, §2

[3] = listed as PE glucuronide batch 4

agonist activity, α1b calcium assay (in words) (α1b adrenoreceptor [1]; highest concentration evaluated (10 μM))	EC50 (α1b adrenoreceptor [1]; α1b-expressing CHO cells, read-out: EC50, a1b Calcium (class symbol)) [µM]	Ki (α1b adrenoreceptor [2]; [3H]-prazosin, read-out: Ki, a1b Binding (class symbol)) [µM]	Ki (α1a adrenoreceptor; [3H]-prazosin, read-out: Ki, a1a Binding (class symbol)) [µM]	Ki (α2c adrenoreceptor; [3H]-UK14304, read-out: Ki, a2c Binding (class symbol)) [µM]	binding / affinity, α2c receptor (in words) (α2c adrenoreceptor; at 100 μM (highest concentration evaluated))	SMILES	fold less potent than PE in inducing a calcium increase, α1b cells (α1b adrenoreceptor [1]; batch b4, approximately 0.28% PE)	increase in intracellular calcium, α1b calcium assay (in words) (α1b adrenoreceptor [1])	increase in intracellular calcium, α1b calcium assay (in words) (α1b adrenoreceptor [1]; [3])	inhibition of 3H-prazosin binding, α1b (in words) (α1b adrenoreceptor [2]; CHO cell membranes)	inhibition of 3H-prazosin binding, α1a (in words) (α1a adrenoreceptor; CHO cell membranes)	inhibition of [3H]-UK14304 binding, α2c (in words) (α2c adrenoreceptor)	inhibition of [3H]-UK14304 binding, α2c (in words) (α2c adrenoreceptor; listed as PE glucuronide b4)	inhibition of [3H]-UK14304 binding, α2c (in words) (α2c adrenoreceptor; [3])	binding / affinity, α1b receptor (in words) (α1b adrenoreceptor [2]; concentrations up to 100 μM)	binding / affinity, α1a receptor (in words) (α1a adrenoreceptor; concentrations up to 100 μM)
						CNC[C@H](O)c1cccc(O[C@@H]2O[C@H](C(=O)O)[C@@H](O)[C@H](O)[C@H]2O)c1 [PE glucuronide, (R)-PE glucuronide]	300-450 fold	consistent with level of contaminating phenylephrine; also recorded: pharmacologically inactive	minimal activity	No appreciable binding; also recorded: no binding affinity; also recorded: pharmacologically inactive	No appreciable binding; also recorded: no binding affinity; also recorded: pharmacologically inactive	weakly inhibits binding; also recorded: pharmacologically inactive	A small amount of binding	minimal activity		
no activity	> 10	> 100	> 100	> 100	no affinity	O=C(O)C(O)c1cccc(O)c1 (stereo not drawn) [3-hydroxymandelic acid]		not active				but not; also recorded: no significant binding			No appreciable binding; also recorded: no affinity	No appreciable binding; also recorded: no affinity
